From patent US20180353501A1 (Arvinas, Inc., priority 2017, published 2018)

Experiments:
[1] = target: T1, cMET (Homo sapiens, UniProt P08581); assay: Western blot examination of protein degradation, MDA-MB-231 cells; type: cell-based; settings: 24 hours
T1 construct: endogenous in cells; host or cells: MDA-MB-231
Method: FIG. 4. Illustrates the degradation of Met by exemplary VHL (Examples 1 and 6) and cereblon (Examples 2 and 8) PROTACS.
Western Blot Examination of Protein Degradation.
MDA-MB-231 cells (1-1.5×10^6) were treated for 24 hours with the indicated compounds solubilized in DMSO. The cells were collected at 300 g for 3 minutes. The cells were then lysed in lysis buffer (25 mM Tris, 1% Triton, 0.25% deoxycholic acid) with Roche protease inhibitor complete cocktail and phosphatase inhibitors (10 mM sodium fluoride, 10 mM sodium pyrophosphate, 1 mM sodium orthovanadate and 20 mM β-glycerophosphate). The total protein concentrations were determined by Pierce BCA Protein Assay and 30-50 μg of protein was loaded onto 10% Tris-Glycine gels. After standard gel electrophoresis, the separated proteins were transferred to nitrocellulose by wet transfer. The immunoblots were then processed by standard procedures and incubated with the respective antibodies. Band intensities were quantified by Bio-Rad's Image Lab software.

[2] = target: T2, MAK (Homo sapiens, UniProt P20794); assay: KINOMEscan in vitro kinase binding; settings: screened at 1000 nM; lower number = stronger binding
T2 construct: purchased DiscoverRx Corporation (KINOMEscan platform, service)
Method: In Vitro Kinase Binding Affinity Determination for Example 1 and Example 2.
(§1) PROTAC in vitro binding affinities (Kd) to c-Met was determined using the KINOMEscan™ platform (DiscoverRx Corporation). The compounds were solubilized in DMSO and sent to DiscoverRx Corporation as 10 μM stock solutions.
Example 1 and Example 2 were screened at a 1000 nM concentration, and the results of the binding interactions are reported in “% Ctrl”, where a lower number indicates stronger binding. % Ctrl=[(test compound signal−positive control signal)/(negative control signal−positive control signal)]×100, wherein the negative control was DMSO.

[3] = target: T3, MET (M1250T) (Homo sapiens, UniProt P08581, M1250T); assay: KINOMEscan in vitro kinase binding; settings: screened at 1000 nM; lower number = stronger binding
T3 construct: purchased DiscoverRx Corporation (KINOMEscan platform, service)
Method: as §1

T2 sequence (P20794 whole entry): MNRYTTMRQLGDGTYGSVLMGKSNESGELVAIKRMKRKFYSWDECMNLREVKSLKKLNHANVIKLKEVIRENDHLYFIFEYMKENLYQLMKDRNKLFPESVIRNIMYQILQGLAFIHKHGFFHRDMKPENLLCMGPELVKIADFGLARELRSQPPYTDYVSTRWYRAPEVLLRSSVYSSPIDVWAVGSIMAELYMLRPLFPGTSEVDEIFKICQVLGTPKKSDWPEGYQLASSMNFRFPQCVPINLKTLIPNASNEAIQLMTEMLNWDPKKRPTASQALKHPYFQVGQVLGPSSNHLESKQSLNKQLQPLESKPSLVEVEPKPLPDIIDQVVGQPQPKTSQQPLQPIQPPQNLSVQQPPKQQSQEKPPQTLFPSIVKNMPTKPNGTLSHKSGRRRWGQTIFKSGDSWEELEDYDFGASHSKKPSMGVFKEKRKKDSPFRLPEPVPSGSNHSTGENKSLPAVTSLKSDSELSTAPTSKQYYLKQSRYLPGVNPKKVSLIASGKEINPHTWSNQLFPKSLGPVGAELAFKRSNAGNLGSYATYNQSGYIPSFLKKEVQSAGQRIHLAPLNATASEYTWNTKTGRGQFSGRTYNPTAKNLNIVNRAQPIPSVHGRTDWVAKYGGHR

- degradation of c-Met (western blot) [1]: significant protein degradation of c-Met
- % Ctrl [2]: 92 % Ctrl
- % Ctrl [3]: 6.0 % Ctrl
Compound: COc1cc2c(Oc3ccc(NC(=O)C4(C(=O)Nc5ccc(F)cc5)CC4)cc3F)ccnc2cc1OCCCOCCCOCCC(=O)N[C@H](C(=O)N1C[C@H](O)C[C@H]1C(=O)NCc1ccc(-c2scnc2C)cc1)C(C)(C)C [Example 1]
